Measurements reported in ChEMBL document CHEMBL3407421, “Design, synthesis, X-ray crystallographic analysis, and biological evaluation of thiazole derivatives as potent and selective inhibitors of human dihydroorotate dehydrogenase” (J Med Chem, 2015).

Assays:
[1] = target: Dihydroorotate dehydrogenase (quinone), mitochondrial (Homo sapiens, UniProt Q02127)
Description: Inhibition of human DHODH using dihydroorotate substrate by DCIP assay

[2] = Retention time of the compound; type: physicochemical
[3] = target: T1, Dihydroorotate dehydrogenase (Plasmodium falciparum, UniProt Q54A96); assay: Inhibition of Plasmodium falciparum DHODH using dihydroorotate substrate by DCIP assay
T1 sequence (Q54A96 whole entry): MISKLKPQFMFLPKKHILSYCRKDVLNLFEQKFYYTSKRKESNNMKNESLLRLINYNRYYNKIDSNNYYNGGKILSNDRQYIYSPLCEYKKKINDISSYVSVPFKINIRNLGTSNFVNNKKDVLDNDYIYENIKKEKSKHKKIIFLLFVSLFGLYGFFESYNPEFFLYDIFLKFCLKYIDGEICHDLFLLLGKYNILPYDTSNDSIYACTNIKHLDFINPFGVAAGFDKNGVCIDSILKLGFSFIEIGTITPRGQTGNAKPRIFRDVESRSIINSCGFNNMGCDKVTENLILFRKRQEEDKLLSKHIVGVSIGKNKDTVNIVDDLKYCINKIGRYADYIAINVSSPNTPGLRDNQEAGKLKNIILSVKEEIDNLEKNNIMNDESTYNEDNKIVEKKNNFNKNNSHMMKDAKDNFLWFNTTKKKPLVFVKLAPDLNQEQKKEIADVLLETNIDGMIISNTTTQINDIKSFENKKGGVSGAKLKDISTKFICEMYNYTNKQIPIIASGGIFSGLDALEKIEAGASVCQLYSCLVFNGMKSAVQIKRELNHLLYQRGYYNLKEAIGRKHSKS

Rattus norvegicus = assay: Toxicity in ip dosed bovine type-2 collagen-induced Wistar rat arthritic model assessed as change in body weight administered as qd for 28 days starting day after immunization; type: organism-based; conditions: in vivo, 672 h

Sequence of Dihydroorotate dehydrogenase (quinone), mitochondrial (Q02127 whole entry): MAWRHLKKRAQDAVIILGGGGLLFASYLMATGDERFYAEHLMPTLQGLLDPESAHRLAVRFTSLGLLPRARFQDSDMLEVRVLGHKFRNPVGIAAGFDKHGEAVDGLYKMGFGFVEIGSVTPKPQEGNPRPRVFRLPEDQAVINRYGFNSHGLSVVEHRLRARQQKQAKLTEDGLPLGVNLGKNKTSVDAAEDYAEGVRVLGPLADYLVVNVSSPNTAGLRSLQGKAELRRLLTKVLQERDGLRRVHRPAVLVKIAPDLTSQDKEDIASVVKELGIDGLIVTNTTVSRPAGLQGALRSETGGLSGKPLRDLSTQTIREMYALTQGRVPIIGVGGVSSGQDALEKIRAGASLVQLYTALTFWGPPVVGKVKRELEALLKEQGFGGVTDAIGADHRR

IC50 [1] [µM] | Retention_time [2] [min] | IC50 [3] [µM] | SMILES | Activity (Rattus norvegicus)
> 10 | 9.94 | > 10 | CC(=O)c1sc(Nc2ccccc2)nc1C | 
3.94 | 14.38 | 0.63 | CC(=O)c1sc(Nc2ccc(C)c(Cl)c2)nc1C | 
3.85 | 12.41 | 1.49 | CC(=O)c1sc(Nc2ccc(C)c(C)c2)nc1C | 
2.35 | 16.17 | 4.27 | CC(=O)c1sc(Nc2ccc(Cl)c(C(F)(F)F)c2)nc1C | 
0.562 | 13.39 | 0.871 | CC(=O)c1sc(Nc2ccc3ccccc3c2)nc1C | 
 | 16.56 | > 10 | CCOC(=O)c1sc(Nc2ccc(C)c(C)c2)nc1C | 
 | 9.01 | > 10 | CCOC(=O)c1sc(Nc2ccc3ccccc3c2)nc1C | 
> 10 | 7.1 | > 10 | CCOC(=O)c1sc(Nc2ccc(Cl)c(C(F)(F)F)c2)nc1N | 
 | 9.96 | > 10 | CCOC(=O)c1sc(Nc2ccc(C)c(F)c2)nc1C1CC1 | 
 | 12.16 | > 10 | CCOC(=O)c1sc(Nc2ccc(C)c(C)c2)nc1C(C)(C)C | 
 | 11.92 | > 10 | CCOC(=O)c1sc(Nc2ccc(C)c(F)c2)nc1C(C)(C)C | 
 | 9.56 | > 10 | CCOC(=O)c1sc(Nc2ccc(C)c(F)c2)nc1-c1ccccc1 | 
 | 10.7 | > 10 | CCOC(=O)c1sc(Nc2ccc(C)c(Cl)c2)nc1-c1ccccc1 | 
 | 7.96 | > 10 | CCOC(=O)c1sc(Nc2ccccc2)nc1-c1ccccc1 | 
 | 7.54 | > 10 | CCOC(=O)c1sc(Nc2ccc(OC)cc2)nc1-c1ccccc1 | 
 | 9.69 | > 10 | CCOC(=O)c1sc(Nc2ccc(Cl)cc2)nc1-c1ccccc1 | 
 | 21.11 | > 10 | CCOC(=O)c1sc(Nc2ccc(C(C)(C)C)cc2)nc1-c1ccccc1 | 
 | 11.06 | > 10 | CCOC(=O)c1sc(Nc2ccc(Cl)c(C(F)(F)F)c2)nc1-c1ccccc1 | 
 | 11.11 | > 10 | CCOC(=O)c1sc(Nc2ccc(Cl)c(Cl)c2)nc1-c1ccccc1 | 
 | 11.83 | > 10 | CCOC(=O)c1sc(Nc2cc(Cl)cc(Cl)c2)nc1-c1ccccc1 | 
> 10 | 10.27 | > 10 | CCOC(=O)c1sc(Nc2ccc(Br)cc2C)nc1-c1ccccc1 | 
> 10 | 10.81 | > 10 | CCOC(=O)c1sc(Nc2ccc(-c3ccccc3)cc2)nc1-c1ccccc1 | 
> 10 | 10.96 | > 10 | CCOC(=O)c1sc(Nc2ccc(-c3cccc(OC)c3)cc2F)nc1-c1ccccc1 | 
 | 9.51 | > 10 | CCOC(=O)c1sc(Nc2c(F)cc(-c3cccc(OC)c3)cc2F)nc1-c1ccccc1 | 
> 10 | 11.24 | > 10 | CCOC(=O)c1sc(Nc2ccc(Oc3ccccc3)c(Cl)c2)nc1-c1ccccc1 | 
> 10 | 9.95 | > 10 | CCOC(=O)c1sc(Nc2ccc(OCc3c(F)cccc3Cl)c(Cl)c2)nc1-c1ccccc1 | 

Further lines, the compound ahead of its results:

SMILES | IC50 [1] [µM] | Retention_time [2] [min] | IC50 [3] [µM] | Activity (Rattus norvegicus)
CCOC(=O)c1sc(Nc2ccc(Br)cc2)nc1C |  | 17.56 | 2.45 | 
CC(=O)c1sc(Nc2ccc(Br)cc2)nc1C | > 10 | 13.52 | > 10 | 
CC(=O)c1sc(Nc2ccc(C(C)(C)C)cc2)nc1C | 3.65 | 14.61 | > 10 | 
CC(=O)c1sc(Nc2ccc(C)c(F)c2)nc1C | > 10 | 5.82 | > 10 | 
CC(=O)c1sc(Nc2ccc(Br)c(C(F)(F)F)c2)nc1C | 1.93 | 16.48 | > 10 | 
CC(=O)c1sc(Nc2ccc3cc4ccccc4cc3c2)nc1C | > 10 | 16.95 | > 10 | 
CCOC(=O)c1sc(Nc2ccc(C)c(F)c2)nc1C |  | 8.14 | > 10 | 
CCOC(=O)c1sc(Nc2ccc(C)c(Cl)c2)nc1C |  | 18.44 | > 10 | 
CCOC(=O)c1sc(Nc2ccc(C)c(C)c2)nc1N |  | 9.57 | > 10 | 
CCOC(=O)c1sc(Nc2ccc(C)c(C)c2)nc1NC(=O)C1CC1 | > 10 | 7.61 | > 10 | 
CCOC(=O)c1sc(Nc2ccc(Cl)c(C(F)(F)F)c2)nc1NC(=O)C1CC1 |  | 7.75 | > 10 | 
CCOC(=O)c1sc(Nc2ccc(C)c(C)c2)nc1NC(=O)c1ccccc1 |  | 7.51 | > 10 | 
CCOC(=O)c1sc(Nc2ccc(Cl)c(C(F)(F)F)c2)nc1NC(=O)c1ccccc1 | > 10 | 8.06 | > 10 | 
CCOC(=O)c1sc(Nc2ccc(C)c(C)c2)nc1C1CC1 |  | 10.18 | > 10 | 
CCOC(=O)c1sc(Nc2ccc(C)c(Cl)c2)nc1C1CC1 |  | 11.22 | > 10 | 
CCOC(=O)c1sc(Nc2ccc(C)c(Cl)c2)nc1C(C)(C)C |  | 13.12 | > 10 | 
CCOC(=O)c1sc(Nc2ccc(C)c(C)c2)nc1-c1ccccc1 |  | 9.84 | > 10 | 
CCOC(=O)c1sc(Nc2ccc(C(F)(F)F)cc2)nc1-c1ccccc1 |  | 9.86 | > 10 | 
CCOC(=O)c1sc(Nc2ccc(Br)c(C(F)(F)F)c2)nc1-c1ccccc1 |  | 11.33 | > 10 | 
CCOC(=O)c1sc(Nc2ccc3c(c2)CCC3)nc1-c1ccccc1 |  | 10.42 | > 10 | Non-toxic
CCOC(=O)c1sc(Nc2ccc3c(c2)OCO3)nc1-c1ccccc1 |  | 7.28 | > 10 | 
CCOC(=O)c1sc(Nc2ccc3c(c2)CCCC3)nc1-c1ccccc1 |  | 11.36 | > 10 | 
CCOC(=O)c1sc(Nc2ccc3ccccc3c2)nc1-c1ccccc1 |  |  | > 10 | 
CCOC(=O)c1sc(Nc2ccc3cc4ccccc4cc3c2)nc1-c1ccccc1 |  | 12.09 | > 10 | 
CCOC(=O)c1sc(Nc2ccc(-c3cccc(OC)c3)cc2)nc1-c1ccccc1 | > 10 | 10.45 | > 10 | 
CCOC(=O)c1sc(Nc2ccc(-c3ccccc3)cc2F)nc1-c1ccccc1 | > 10 | 11.33 | > 10 | 
CCOC(=O)c1sc(Nc2ccc(OCc3ccccc3)c(Cl)c2)nc1-c1ccccc1 | > 10 | 10.92 | > 10 | 
CN(Cc1cnc2nc(N)nc(N)c2n1)c1ccc(C(=O)N[C@@H](CCC(=O)O)C(=O)O)cc1 [METHOTREXATE] |  |  |  | Non-toxic
